Square brackets hold non-standard residues; d marks the D form. Peptide text beside a SMILES is read from it. Phe(4-F) = N[C@@H](Cc1ccc(F)cc1)C(=O)O; Arg(Me) = CNC(=N)NCCC[C@H](N)C(=O)O; Dap(CONH2) = NC(=O)NC[C@H](N)C(=O)O; Ala(cPr) = N[C@@H](CC1CC1)C(=O)O; Hyp = O=C(O)[C@@H]1C[C@@H](O)CN1; Cit = NC(=O)NCCC[C@H](N)C(=O)O; NMeS = CN[C@@H](CO)C(=O)O; Aib = CC(C)(N)C(=O)O; azaGly = NNC(=O)O

In the assay the target is T1, hOT7T175 (Homo sapiens, UniProt Q969F8).
T1 construct: expressed in transfected cells
Kind of assay: Assay for intracellular Ca ion level-increasing activity using FLIPR. Type of assay: cell-based. The settings on record: hOT7T175/CHO cells, relative to Metastin (1-54). The essentials:
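CHO/dhfr− cells stably transfected with hOT7T175, selected for high metastin response, loaded with Fluo3-AM for 1 h at 37 °C in HANKS/HBSS (pH 7.4) with probenecid. Peptides were diluted from 1×10^−3 M DMSO stock into HANKS/HBSS with 2.5 mM probenecid, 0.2% BSA, 0.1% CHAPS; intracellular Ca rise read by FLIPR.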

T1 sequence (Q969F8 whole entry L364H): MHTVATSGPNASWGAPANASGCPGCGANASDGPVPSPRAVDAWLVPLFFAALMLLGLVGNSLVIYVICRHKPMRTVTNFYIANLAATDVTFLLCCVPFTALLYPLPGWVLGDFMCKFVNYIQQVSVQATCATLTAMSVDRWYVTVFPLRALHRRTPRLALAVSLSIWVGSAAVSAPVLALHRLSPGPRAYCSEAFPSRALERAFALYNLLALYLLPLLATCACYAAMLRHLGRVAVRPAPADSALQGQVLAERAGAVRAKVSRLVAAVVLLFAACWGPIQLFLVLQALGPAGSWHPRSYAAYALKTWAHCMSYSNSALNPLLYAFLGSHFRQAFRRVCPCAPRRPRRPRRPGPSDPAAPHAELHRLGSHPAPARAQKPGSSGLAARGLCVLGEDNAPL

In the case of `CNC(=N)NCCC[C@H](NC(=O)[C@H](CC(C)C)NC(=O)NNC(=O)[C@H](Cc1ccc(F)cc1)NC(=O)[C@@H](NC(=O)[C@H](CC(N)=O)NC(=O)[C@H](CCCCN)NC(=O)[C@@H](Cc1ccc(O)cc1)NC(C)=O)[C@@H](C)O)C(=O)N[C@@H](Cc1c[nH]c2ccccc12)C(N)=O` [Compound No. 789, Ac-D-Tyr-Lys-Asn-Thr-Phe(4F)-AzaGly-Leu-Arg(Me)-Trp-NH2] (Ac-[dY]KNT[Phe(4-F)][azaGly]L[Arg(Me)]W-NH2), the “Specific Activity: intracellular Ca ion level-increasing activity [specific activity to Metastin (1-54)]” value worked out at 3.4. The value for `CNC(=N)NCCC[C@H](NC(=O)[C@H](CC(C)C)NC(=O)NNC(=O)[C@H](Cc1ccc(F)cc1)NC(=O)[C@@H](NC(=O)[C@H](CC(N)=O)NC(=O)CNC(=O)[C@@H](Cc1ccc(O)cc1)NC(C)=O)[C@@H](C)O)C(=O)N[C@@H](Cc1c[nH]c2ccccc12)C(N)=O` [Compound No. 790, Ac-D-Tyr-Gly-Asn-Thr-Phe(4F)-AzaGly-Leu-Arg(Me)-Trp-NH2] (Ac-[dY]GNT[Phe(4-F)][azaGly]L[Arg(Me)]W-NH2) was 2.3; that for `CNC(=N)NCCC[C@H](NC(=O)[C@H](CC(C)C)NC(=O)NNC(=O)[C@H](Cc1ccc(F)cc1)NC(=O)[C@@H](NC(=O)[C@H](CC(N)=O)NC(=O)C(C)(C)NC(=O)[C@@H](Cc1ccc(O)cc1)NC(C)=O)[C@@H](C)O)C(=O)N[C@@H](Cc1c[nH]c2ccccc12)C(N)=O` [Compound No. 791, Ac-D-Tyr-Aib-Asn-Thr-Phe(4F)-AzaGly-Leu-Arg(Me)-Trp-NH2] (Ac-[dY][Aib]NT[Phe(4-F)][azaGly]L[Arg(Me)]W-NH2) was 2.9; that for `CNC(=N)NCCC[C@H](NC(=O)[C@H](CC(C)C)NC(=O)NNC(=O)[C@@H](Cc1ccccc1)NC(=O)[C@@H](NC(=O)[C@H](CC(N)=O)NC(=O)[C@@H]1C[C@@H](O)CN1C(=O)[C@@H](Cc1ccc(O)cc1)NC(C)=O)[C@@H](C)O)C(=O)N[C@@H](Cc1c[nH]c2ccccc12)C(N)=O` [Compound No. 794, Ac-D-Tyr-Hyp-Asn-Thr-D-Phe-AzaGly-Leu-Arg(Me)-Trp-NH2] (Ac-[dY][Hyp]NT[dF][azaGly]L[Arg(Me)]W-NH2) was 2.3.

As to `CC(=O)N[C@H](Cc1ccc(O)cc1)C(=O)N1C[C@H](O)C[C@H]1C(=O)N[C@@H](CC(N)=O)C(=O)N[C@H](C(=O)N[C@@H](Cc1ccccc1)C(=O)NNC(=O)N[C@@H](CC(C)C)C(=O)N[C@@H](CCCNC(=N)N)C(=O)N[C@@H](Cc1c[nH]c2ccccc12)C(N)=O)[C@@H](C)O` [Compound No. 797, Ac-D-Tyr-Hyp-Asn-Thr-Phe-AzaGly-Leu-Arg-Trp-NH2] (Ac-[dY][Hyp]NTF[azaGly]LRW-NH2), the “Specific Activity: intracellular Ca ion level-increasing activity [specific activity to Metastin (1-54)]” value came to 1.4. The value for `CNC(=N)NCCC[C@H](NC(=O)[C@H](CC(C)C)NC(=O)NNC(=O)[C@H](Cc1ccccc1)NC(=O)[C@@H](NC(=O)[C@H](CNC(N)=O)NC(=O)[C@@H]1C[C@@H](O)CN1C(=O)[C@@H](Cc1ccc(O)cc1)NC(C)=O)[C@@H](C)O)C(=O)N[C@@H](Cc1c[nH]c2ccccc12)C(N)=O` [Compound No. 800, Ac-D-Tyr-Hyp-Alb-Thr-Phe-AzaGly-Leu-Arg(Me)-Trp-NH2] (Ac-[dY][Hyp][Dap(CONH2)]TF[azaGly]L[Arg(Me)]W-NH2) was 0.8. As to `CNC(=N)NCCC[C@H](NC(=O)[C@H](CC(C)C)NC(=O)NNC(=O)[C@H](Cc1ccccc1)NC(=O)c1ccc(CN(Cc2ccccn2)Cc2ccccn2)cc1)C(=O)N[C@@H](Cc1c[nH]c2ccccc12)C(N)=O` [Compound No. 801, 4-[Bis-(2-Pyridylmethyl)aminomethyl]benzoyl-Phe-AzaGly-Leu-Arg(Me)-Trp-NH2], the “Specific Activity: intracellular Ca ion level-increasing activity [specific activity to Metastin (1-54)]” value was 11.1. Regarding `CNC(=N)NCCC[C@H](NC(=O)[C@H](CC(C)C)NC(=O)NNC(=O)[C@H](Cc1ccccc1)NC(=O)[C@H](CO)N(C)C(=O)[C@H](CC(N)=O)NC(=O)[C@@H]1C[C@@H](O)CN1C(=O)[C@@H](Cc1ccc(O)cc1)NC(C)=O)C(=O)N[C@@H](Cc1c[nH]c2ccccc12)C(N)=O` [Compound No. 809, Ac-D-Tyr-Hyp-Asn-NMeSer-Phe-AzaGly-Leu-Arg(Me)-Trp-NH2] (Ac-[dY][Hyp]N[NMeS]F[azaGly]L[Arg(Me)]W-NH2), the “Specific Activity: intracellular Ca ion level-increasing activity [specific activity to Metastin (1-54)]” value was 1.0. The value for `CNC(=N)NCCC[C@H](NC(=O)[C@H](CC(C)C)NC(=O)NNC(=O)[C@H](Cc1ccccc1)NC(=O)[C@@H]1C[C@@H](O)CN1C(=O)[C@H](CC(N)=O)NC(=O)[C@@H]1C[C@@H](O)CN1C(=O)[C@@H](Cc1ccc(O)cc1)NC(C)=O)C(=O)N[C@@H](Cc1c[nH]c2ccccc12)C(N)=O` [Compound No. 810, Ac-D-Tyr-Hyp-Asn-Hyp-Phe-AzaGly-Leu-Arg(Me)-Trp-NH2] (Ac-[dY][Hyp]N[Hyp]F[azaGly]L[Arg(Me)]W-NH2) was 1.5.

As for `CNC(=N)NCCC[C@H](NC(=O)[C@H](CC(C)C)NC(=O)NNC(=O)[C@H](Cc1ccccc1)NC(=O)CNC(=O)[C@H](CC(N)=O)NC(=O)[C@@H]1C[C@@H](O)CN1C(=O)[C@@H](Cc1ccc(O)cc1)NC(C)=O)C(=O)N[C@@H](Cc1c[nH]c2ccccc12)C(N)=O` [Compound No. 813, Ac-D-Tyr-Hyp-Asn-Gly-Phe-AzaGly-Leu-Arg(Me)-Trp-NH2] (Ac-[dY][Hyp]NGF[azaGly]L[Arg(Me)]W-NH2), the “Specific Activity: intracellular Ca ion level-increasing activity [specific activity to Metastin (1-54)]” value is listed as 0.5. The value for `CNC(=N)NCCC[C@H](NC(=O)[C@H](CC(C)C)NC(=O)NNC(=O)[C@H](Cc1ccccc1)NC(=O)[C@H](C)NC(=O)[C@H](CC(N)=O)NC(=O)[C@@H]1C[C@@H](O)CN1C(=O)[C@@H](Cc1ccc(O)cc1)NC(C)=O)C(=O)N[C@@H](Cc1c[nH]c2ccccc12)C(N)=O` [Compound No. 814, Ac-D-Tyr-Hyp-Asn-Ala-Phe-AzaGly-Leu-Arg(Me)-Trp-NH2] (Ac-[dY][Hyp]NAF[azaGly]L[Arg(Me)]W-NH2) was 0.5; that for `CNC(=N)NCCC[C@H](NC(=O)[C@H](CC(C)C)NC(=O)NNC(=O)[C@H](Cc1ccccc1)NC(=O)[C@@H](C)NC(=O)[C@H](CC(N)=O)NC(=O)[C@@H]1C[C@@H](O)CN1C(=O)[C@@H](Cc1ccc(O)cc1)NC(C)=O)C(=O)N[C@@H](Cc1c[nH]c2ccccc12)C(N)=O` [Compound No. 815, Ac-D-Tyr-Hyp-Asn-D-Ala-Phe-AzaGly-Leu-Arg(Me)-Trp-NH2] (Ac-[dY][Hyp]N[dA]F[azaGly]L[Arg(Me)]W-NH2) was 0.5; that for `CNC(=N)NCCC[C@H](NC(=O)[C@H](CC(C)C)NC(=O)NNC(=O)[C@H](Cc1ccccc1)NC(=O)[C@@H](NC(=O)[C@H](Cc1cnc[nH]1)NC(=O)[C@@H]1C[C@@H](O)CN1C(=O)[C@@H](Cc1ccc(O)cc1)NC(C)=O)[C@@H](C)O)C(=O)N[C@@H](Cc1c[nH]c2ccccc12)C(N)=O` [Compound No. 816, Ac-D-Tyr-Hyp-His-Thr-Phe-AzaGly-Leu-Arg(Me)-Trp-NH2] (Ac-[dY][Hyp]HTF[azaGly]L[Arg(Me)]W-NH2) was 1.1. As for `CNC(=N)NCCC[C@H](NC(=O)[C@H](CC(C)C)NC(=O)NNC(=O)[C@H](Cc1ccccc1)NC(=O)[C@@H](NC(=O)[C@H](CCC(N)=O)NC(=O)[C@@H]1C[C@@H](O)CN1C(=O)[C@@H](Cc1ccc(O)cc1)NC(C)=O)[C@@H](C)O)C(=O)N[C@@H](Cc1c[nH]c2ccccc12)C(N)=O` [Compound No. 843, Ac-D-Tyr-Hyp-Gln-Thr-Phe-AzaGly-Leu-Arg(Me)-Trp-NH2] (Ac-[dY][Hyp]QTF[azaGly]L[Arg(Me)]W-NH2), the “Specific Activity: intracellular Ca ion level-increasing activity [specific activity to Metastin (1-54)]” value came out at 0.8.

Turning to `CNC(=N)NCCC[C@H](NC(=O)[C@H](CC(C)C)NC(=O)NNC(=O)[C@H](Cc1ccccc1)NC(=O)[C@@H](NC(=O)[C@@H](CC(N)=O)NC(=O)[C@@H]1C[C@@H](O)CN1C(=O)[C@@H](Cc1ccc(O)cc1)NC(C)=O)[C@@H](C)O)C(=O)N[C@@H](Cc1c[nH]c2ccccc12)C(N)=O` [Compound No. 844, Ac-D-Tyr-Hyp-D-Asn-Thr-Phe-AzaGly-Leu-Arg(Me)-Trp-NH2] (Ac-[dY][Hyp][dN]TF[azaGly]L[Arg(Me)]W-NH2), the “Specific Activity: intracellular Ca ion level-increasing activity [specific activity to Metastin (1-54)]” value was determined as 0.9. The value for `CNC(=N)NCCC[C@H](NC(=O)[C@H](CC(C)C)NC(=O)NNC(=O)[C@H](Cc1ccccc1)NC(=O)[C@@H](NC(=O)[C@H](CCCNC(N)=O)NC(=O)[C@@H]1C[C@@H](O)CN1C(=O)[C@@H](Cc1ccc(O)cc1)NC(C)=O)[C@@H](C)O)C(=O)N[C@@H](Cc1c[nH]c2ccccc12)C(N)=O` [Compound No. 845, Ac-D-Tyr-Hyp-Cit-Thr-Phe-AzaGly-Leu-Arg(Me)-Trp-NH2] (Ac-[dY][Hyp][Cit]TF[azaGly]L[Arg(Me)]W-NH2) was 1.0.

Regarding `CNC(=N)NCCC[C@H](NC(=O)[C@H](CC(C)C)NC(=O)NNC(=O)[C@H](Cc1ccccc1)NC(=O)[C@H](NC(=O)[C@H](CC(N)=O)NC(=O)[C@@H]1C[C@@H](O)CN1C(=O)[C@@H](Cc1ccc(O)cc1)NC(C)=O)[C@H](C)O)C(=O)N[C@@H](Cc1c[nH]c2ccccc12)C(N)=O` [Compound No. 846, Ac-D-Tyr-Hyp-Asn-D-Thr-Phe-AzaGly-Leu-Arg(Me)-Trp-NH2] (Ac-[dY][Hyp]N[dT]F[azaGly]L[Arg(Me)]W-NH2), the “Specific Activity: intracellular Ca ion level-increasing activity [specific activity to Metastin (1-54)]” value turned out to be 0.9. `CNC(=N)NCCC[C@H](NC(=O)[C@H](CC1CC1)NC(=O)NNC(=O)[C@H](Cc1ccccc1)NC(=O)[C@@H](NC(=O)[C@H](CC(N)=O)NC(=O)[C@@H]1C[C@@H](O)CN1C(=O)[C@@H](Cc1ccc(O)cc1)NC(C)=O)[C@@H](C)O)C(=O)N[C@@H](Cc1c[nH]c2ccccc12)C(N)=O` [Compound No. 856, Ac-D-Tyr-Hyp-Asn-Thr-Phe-AzaGly-Ala(cPr)-Arg(Me)-Trp-NH2] (Ac-[dY][Hyp]NTF[azaGly][Ala(cPr)][Arg(Me)]W-NH2): the “Specific Activity: intracellular Ca ion level-increasing activity [specific activity to Metastin (1-54)]” value was found to be 0.6.

These data come from patent US8404643B2, “Metastin derivatives and use thereof” (priority 2005, dated 2013).
